# Measurements: patent US20240158446A1, “CYCLIC COMPOUND HAVING SELECTIVE INHIBITORY ACTION ON KRAS OVER HRAS AND NRAS” (CHUGAI SEIYAKU KABUSHIKI KAISHA, priority 2021, published 2024)
# Experiments:
# [1] = molecular target: GDP-bound HRAS wild-type protein (Homo sapiens, UniProt P01112); assay: Binding to HRAS by surface plasmon resonance (SPR), Single Cycle Kinetics; settings: SPR, GDP-bound HRAS wild-type protein vs GDP-bound KRAS wild-type protein
# [2] = molecular target: GDP-bound NRAS wild-type protein (Homo sapiens, UniProt P01111); assay: Binding to NRAS by surface plasmon resonance (SPR), Single Cycle Kinetics; settings: SPR, GDP-bound NRAS wild-type protein vs GDP-bound KRAS wild-type protein
# GDP-bound NRAS wild-type protein, sequence (P01111 whole entry): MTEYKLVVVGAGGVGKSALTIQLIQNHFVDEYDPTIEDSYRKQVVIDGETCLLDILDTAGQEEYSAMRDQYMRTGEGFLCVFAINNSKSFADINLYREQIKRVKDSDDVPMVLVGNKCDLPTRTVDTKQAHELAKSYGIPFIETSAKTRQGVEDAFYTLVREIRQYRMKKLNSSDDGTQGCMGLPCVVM
# GDP-bound HRAS wild-type protein, sequence (P01112 whole entry): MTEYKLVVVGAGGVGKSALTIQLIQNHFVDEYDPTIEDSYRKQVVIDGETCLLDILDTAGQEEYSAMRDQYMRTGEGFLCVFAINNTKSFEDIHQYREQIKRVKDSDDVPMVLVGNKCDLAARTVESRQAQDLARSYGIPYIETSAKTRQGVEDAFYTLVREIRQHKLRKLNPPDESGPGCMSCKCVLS
SMILES,HRAS/KRAS (ratio of KD value for HRAS to KD value for KRAS) [1],NRAS/KRAS (ratio of KD value for NRAS to KD value for KRAS) [2]
CC[C@H](C)[C@@H]1NC(=O)[C@H](CC(C)C)N(C)C(=O)C[C@@H](C(=O)N(C)C)N(C)C(=O)[C@H](C2CCCC2)N(C)C(=O)C2(CCCC2)NC(=O)[C@@H]2C[C@@H](C)CN2C(=O)[C@H](CCc2cc(F)c(C(F)(F)F)c(F)c2)NC(=O)CN(C)C(=O)[C@H](Cc2ccc(C)cc2)N2CC/C=C\C[C@@H](C2=O)N(C)C(=O)CN(C)C1=O [PP2189],A (a compound having 10 or more and less than 20 is denoted as A),A (a compound having 10 or more and less than 20 is denoted as A)
CCC[C@H]1C(=O)N[C@@H](C2CCCC2)C(=O)N(C)CC(=O)N(C)[C@H]2C/C=C\CCN(C2=O)[C@@H](Cc2ccc(C)cc2)C(=O)N(C)CC(=O)N[C@@H](CCc2ccc(C(F)(F)F)c(Cl)c2)C(=O)N2C[C@H](OCC)C[C@H]2C(=O)NC2(CC(C)(C)C2)C(=O)N(C)[C@@H](CC(C)C)C(=O)N(C)[C@H](C(=O)N(C)C)CC(=O)N1C [PP2190],A (a compound having 10 or more and less than 20 is denoted as A),A (a compound having 10 or more and less than 20 is denoted as A)
CC[C@@H]1C[C@H]2C(=O)NC3(CCCC3)C(=O)N(C)[C@@H](C3CCCC3)C(=O)N(C)[C@H](C(=O)N(C)C)CC(=O)N(C)[C@@H](CC(C)C)C(=O)N[C@@H]([C@@H](C)CC)C(=O)N(C)CC(=O)N(C)[C@H]3C/C=C\CCN(C3=O)[C@@H](Cc3ccc(C)cc3)C(=O)N(C)CC(=O)N[C@@H](CCc3cc(F)c(C(F)(F)F)c(F)c3)C(=O)N2C1 [PP2191],B (a compound having 3 or more and less than 10 is denoted as B),A (a compound having 10 or more and less than 20 is denoted as A)
CCC[C@H]1C(=O)N[C@@H](C2CCCC2)C(=O)N(C)CC(=O)N(C)[C@H]2C/C=C\CCN(C2=O)[C@@H](Cc2ccc(C)cc2)C(=O)N(C)CC(=O)N[C@@H](CCc2ccc(C(F)(F)F)c(Cl)c2)C(=O)N2C[C@H](OCC)C[C@H]2C(=O)NC2(CC(C)(C)C2)C(=O)N(C)[C@@H](CC(F)(F)F)C(=O)N(C)[C@H](C(=O)N(C)C)CC(=O)N1C [PP2192],A (a compound having 10 or more and less than 20 is denoted as A),A (a compound having 10 or more and less than 20 is denoted as A)
CCC[C@@H]1C[C@H]2C(=O)NC3(CCCC3)C(=O)N(C)[C@@H](C3CCCC3)C(=O)N(C)[C@H](C(=O)N(C)C)CC(=O)N(C)[C@@H](CC(C)C)C(=O)N[C@@H]([C@@H](C)CC)C(=O)N(C)CC(=O)N(C)[C@H]3C/C=C\CCN(C3=O)[C@@H](Cc3ccc(C)cc3)C(=O)N(C)CC(=O)N[C@@H](CCc3cc(F)c(C(F)(F)F)c(F)c3)C(=O)N2C1 [PP2193],A (a compound having 10 or more and less than 20 is denoted as A),A (a compound having 10 or more and less than 20 is denoted as A)
CCC[C@H]1C(=O)N[C@@H](C(CC)CC)C(=O)N(C)CC(=O)N(C)[C@H]2C/C=C\CCN(C2=O)[C@@H](Cc2ccc(C)cc2)C(=O)N(C)CC(=O)N[C@@H](CCc2ccc(C(F)(F)F)c(Cl)c2)C(=O)N2C[C@H](OCC)C[C@H]2C(=O)NC2(CC(C)(C)C2)C(=O)N(C)[C@@H](CC(C)C)C(=O)N(C)[C@H](C(=O)N(C)C)CC(=O)N1C [PP2202],A (a compound having 10 or more and less than 20 is denoted as A),A (a compound having 10 or more and less than 20 is denoted as A)
CCCOC[C@H]1C(=O)N[C@@H]([C@@H](C)CC)C(=O)N(C)CC(=O)N(C)[C@H]2C/C=C\CCN(C2=O)[C@@H](Cc2ccc(C)cc2)C(=O)N(C)CC(=O)N[C@@H](CCc2cc(F)c(C(F)(F)F)c(F)c2)C(=O)N2C[C@H](CCC)C[C@H]2C(=O)NC2(CC(C)(C)C2)C(=O)N(C)[C@@H](C2CCCC2)C(=O)N(C)[C@H](C(=O)N(C)C)CC(=O)N1C [PP2203],A (a compound having 10 or more and less than 20 is denoted as A),A (a compound having 10 or more and less than 20 is denoted as A)
CCC[C@H]1C(=O)N[C@@H]([C@@H](C)CC)C(=O)N(C)CC(=O)N(C)[C@H]2C/C=C\CCN(C2=O)[C@@H](Cc2ccc(C)cc2)C(=O)N(C)CC(=O)N[C@@H](CCc2ccc(C(F)(F)F)c(Cl)c2)C(=O)N2C[C@H](C)C[C@H]2C(=O)NC2(CC(C)(C)C2)C(=O)N(C)[C@@H](C2CCCC2)C(=O)N(C)[C@H](C(=O)N(C)C)CC(=O)N1C [PP2210],B (a compound having 3 or more and less than 10 is denoted as B),A (a compound having 10 or more and less than 20 is denoted as A)
CCC[C@@H]1C[C@H]2C(=O)NC3(CC(C)(C)C3)C(=O)N(C)[C@@H](C3CCCC3)C(=O)N(C)[C@H](C(=O)N(C)C)CC(=O)N(C)[C@@H](CCC)C(=O)N[C@@H]([C@@H](C)CC)C(=O)N(C)CC(=O)N(C)[C@H]3C/C=C\CCN(C3=O)[C@@H](Cc3ccc(C)cc3)C(=O)N(C)CC(=O)N[C@@H](CCc3ccc(C(F)(F)F)c(Cl)c3)C(=O)N2C1 [PP2214],A (a compound having 10 or more and less than 20 is denoted as A),A (a compound having 10 or more and less than 20 is denoted as A)
CCC[C@H]1C(=O)N[C@@H]([C@@H](C)CC)C(=O)N(C)CC(=O)N(C)[C@H]2C/C=C\CCN(C2=O)[C@@H](Cc2ccc(C)cc2)C(=O)N(C)CC(=O)N[C@@H](CCc2cc(F)c(C(F)(F)F)c(F)c2)C(=O)N2C[C@H](CC)C[C@H]2C(=O)NC2(CCCC2)C(=O)N(C)[C@@H](C2CCCC2)C(=O)N(C)[C@H](C(=O)N(C)C)CC(=O)N1C [PP2216],A (a compound having 10 or more and less than 20 is denoted as A),A (a compound having 10 or more and less than 20 is denoted as A)
CCCOC[C@H]1C(=O)N[C@@H]([C@@H](C)CC)C(=O)N(C)CC(=O)N(C)[C@H]2C/C=C\CCN(C2=O)[C@@H](Cc2ccc(C)cc2)C(=O)N(C)CC(=O)N[C@@H](CCc2cc(F)c(C(F)(F)F)c(F)c2)C(=O)N2C[C@H](CC)C[C@H]2C(=O)NC2(CCCC2)C(=O)N(C)[C@@H](C2CCCC2)C(=O)N(C)[C@H](C(=O)N(C)C)CC(=O)N1C [PP2218],A (a compound having 10 or more and less than 20 is denoted as A),A (a compound having 10 or more and less than 20 is denoted as A)
CCC[C@H]1C(=O)N[C@@H]([C@H](C)CC)C(=O)N(C)CC(=O)N(C)[C@H]2C/C=C\CCN(C2=O)[C@@H](Cc2ccc(C)cc2)C(=O)N(C)CC(=O)N[C@@H](CCc2ccc(C(F)(F)F)c(Cl)c2)C(=O)N2C[C@H](OCC)C[C@H]2C(=O)NC2(CC(C)(C)C2)C(=O)N(C)[C@@H](CC(C)(C)C)C(=O)N(C)[C@H](C(=O)N(C)C)CC(=O)N1C [PP2219],A (a compound having 10 or more and less than 20 is denoted as A),A (a compound having 10 or more and less than 20 is denoted as A)
CC[C@@H]1C[C@H]2C(=O)NC3(CCC3)C(=O)N(C)[C@@H](C3CCCC3)C(=O)N(C)[C@H](C(=O)N(C)C)CC(=O)N(C)[C@@H](CC(C)C)C(=O)N[C@@H]([C@@H](C)CC)C(=O)N(C)CC(=O)N(C)[C@H]3C/C=C\CCN(C3=O)[C@@H](Cc3ccc(C)cc3)C(=O)N(C)CC(=O)N[C@@H](CCc3cc(F)c(C(F)(F)F)c(F)c3)C(=O)N2C1 [PP2220],A (a compound having 10 or more and less than 20 is denoted as A),A (a compound having 10 or more and less than 20 is denoted as A)
CCC[C@H]1C(=O)N[C@@H]([C@H](C)CC)C(=O)N(C)CC(=O)N(C)[C@H]2C/C=C\CCN(C2=O)[C@@H](Cc2ccc(C)cc2)C(=O)N(C)CC(=O)N[C@@H](CCc2ccc(C(F)(F)F)c(Cl)c2)C(=O)N2C[C@H](OCC)C[C@H]2C(=O)NC2(CC(C)(C)C2)C(=O)N(C)[C@@H](C2CCCC2)C(=O)N(C)[C@H](C(=O)N(C)C)CC(=O)N1C [PP2221],A (a compound having 10 or more and less than 20 is denoted as A),A (a compound having 10 or more and less than 20 is denoted as A)
CC[C@H](C)[C@@H]1NC(=O)[C@H](CC(C)C)N(C)C(=O)C[C@@H](C(=O)N(C)C)N(C)C(=O)[C@H](C2CCCC2)N(C)C(=O)C2(CC(C)(C)C2)NC(=O)[C@@H]2C[C@@H](C)CN2C(=O)[C@H](CCc2cc(F)c(C(F)(F)F)c(F)c2)NC(=O)CN(C)C(=O)[C@H](Cc2ccc(C)cc2)N2CC/C=C\C[C@@H](C2=O)N(C)C(=O)CN(C)C1=O [PP2223],A (a compound having 10 or more and less than 20 is denoted as A),A (a compound having 10 or more and less than 20 is denoted as A)
CCCOC[C@H]1C(=O)N[C@@H]([C@@H](C)CC)C(=O)N(C)CC(=O)N(C)[C@H]2C/C=C\CCN(C2=O)[C@@H](Cc2ccc(C)cc2)C(=O)N(C)CC(=O)N[C@@H](CCc2cc(F)c(C(F)(F)F)c(F)c2)C(=O)N2C[C@H](C)C[C@H]2C(=O)NC2(CCCC2)C(=O)N(C)[C@@H](C2CCCC2)C(=O)N(C)[C@H](C(=O)N(C)C)CC(=O)N1C [PP2225],A (a compound having 10 or more and less than 20 is denoted as A),A (a compound having 10 or more and less than 20 is denoted as A)
CCC[C@@H]1C[C@H]2C(=O)NC3(CCCC3)C(=O)N(C)[C@@H](C3CCCC3)C(=O)N(C)[C@H](C(=O)N(C)C)CC(=O)N(C)[C@@H](CC)C(=O)N[C@@H]([C@@H](C)CC)C(=O)N(C)CC(=O)N(C)[C@H]3C/C=C\CCN(C3=O)[C@@H](Cc3ccc(C)cc3)C(=O)N(C)CC(=O)N[C@@H](CCc3cc(F)c(C(F)(F)F)c(F)c3)C(=O)N2C1 [PP2227],A (a compound having 10 or more and less than 20 is denoted as A),A (a compound having 10 or more and less than 20 is denoted as A)
